Consider nine compounds from patent US20240228555A9, “ANTIMICROBIAL PEPTIDOMIMETICS” (Basilea Pharmaceutica International AG, Allschwil, priority 2020, published 2024).

The subject of series [1] is Escherichia coli ATCC 25922. To be noted: ATCC 25922. The method in brief: (§1)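 Broth microdilution; cation-adjusted MHII; inoculum ~5×10^5 CFU/mL from 0.5 McFarland saline suspension; peptide two-fold serial dilutions; polysorbate 80 0.002% final; peptide stock 1 mg/mL in water.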
The test system of series [2] is Escherichia coli MCR-1 Af 45. To be noted: Mueller-Hinton broth II, no visible growth after 18-20 hours at 35° C. The method in brief: as §1
Series [3] deals with Klebsiella pneumoniae SSI3010. The settings on record: SSI3010. The method in brief:
as §1

Series [4] deals with human red blood cells (hRBC). The class given is cell-based. To be noted: red cells of human, 1 h, 0.2 g/L. The method in brief:
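PBS-washed human erythrocytes (20% v/v) were incubated with compounds at 200 μg/mL for 1 h at 37° C with shaking. Supernatant OD540 was read after 8-fold dilution; hemolysis % = OD540 peptide / OD540 of the 100% lysis control (2.5% Triton X-100 in H2O) ×100, with PBS as 0%.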

SMILES strings stand for the structures. Where a SMILES comes first, the peptide text is derived from it.

In the case of `CC[C@H](C)[C@H](NC(=O)[C@@H](NC(=O)[C@@H]1C[C@@H](O)CN1C(=O)[C@@H](N)C(C)C)[C@@H](C)CC)C(=O)N[C@@H](Cc1ccc(O)cc1)C(=O)N[C@@H]1C(=O)N[C@@H](CC(N)=O)C(=O)N[C@@H](CCCNC(=N)N)C(=O)N[C@@H](CCN)C(=O)N[C@@H]([C@@H](C)O)C(=O)N[C@H](CCN)C(=O)N[C@@H](CO)C(=O)N[C@H](C(=O)N[C@@H](CCN)C(=O)N[C@@H](CCCNC(=N)N)C(=O)N[C@@H](Cc2ccc(O)cc2)C(=O)O)CSSC1(C)C` [Example 101, Val-Hyp-Ile-Ile-Tyr-Pen-Asn-Arg-Dab-Thr-^DDab-Cys-Dab-Arg-Tyr], the “Escherichia coli ATCC 25922 MIC” value in series [1] amounted to 0.125 µg/mL. The “Escherichia coli MCR-1 Af 45 MIC” value in series [2] came out at 0.125 µg/mL. Moreover, in series [3], the “Klebsiella pneumoniae SSI3010 MIC” value stood at 0.25 µg/mL. In series [4], the “Hemolysis at 0.2 g/L” value is <1%.
`CC[C@H](C)[C@H](NC(=O)[C@@H]1C[C@@H](N)CN1C(=O)[C@@H](N)C(C)C)C(=O)N[C@H](C(=O)N[C@@H](Cc1ccc(O)cc1)C(=O)N[C@@H]1C(=O)N[C@@H](CC(N)=O)C(=O)N[C@@H](CCCNC(=N)N)C(=O)N[C@@H](CCN)C(=O)N[C@@H]([C@@H](C)O)C(=O)N[C@H](CCN)C(=O)N[C@@H](CCCNC(N)=O)C(=O)N[C@H](C(=O)N[C@@H](CCN)C(=O)N[C@@H](CO)C(=O)N[C@@H](Cc2ccc(O)cc2)C(=O)O)CSSC1(C)C)[C@@H](C)O` [Example 102, Val-Pro((4R)NH2)-Ile-Thr-Tyr-Pen-Asn-Arg-Dab-Thr-^DDab-Cit-Cys-Dab-Ser-Tyr] (HELM PEPTIDE1{V.[N[C@@H]1C[C@@H](C(=O)[*:2])N([*:1])C1].I.T.Y.[Pen].N.R.[Dab].T.[NCC[C@@H](N[*:1])C(=O)[*:2]].[Cit].C.[Dab].S.Y}$PEPTIDE1,PEPTIDE1,6:R3-13:R3$$$V2.0): the “Escherichia coli ATCC 25922 MIC” value in series [1] amounted to 0.25 µg/mL. In addition, the “Escherichia coli MCR-1 Af 45 MIC” value in series [2] turned out to be 0.125 µg/mL. The “Klebsiella pneumoniae SSI3010 MIC” value in series [3] is 0.25 µg/mL. Besides, in series [4], the “Hemolysis at 0.2 g/L” value is <1%.
For `CC[C@H](C)[C@H](NC(=O)[C@@H]1C[C@@H](N)CN1C(=O)[C@@H](N)C(C)C)C(=O)N[C@H](C(=O)N[C@@H](Cc1ccc(O)cc1)C(=O)N[C@@H]1C(=O)N[C@@H](CC(N)=O)C(=O)N[C@@H](CCCNC(=N)N)C(=O)N[C@@H](CCN)C(=O)N[C@@H]([C@@H](C)O)C(=O)N[C@H](CCN)C(=O)N[C@@H](CCCCN)C(=O)N[C@H](C(=O)N[C@@H](CO)C(=O)N[C@@H](CO)C(=O)N[C@@H](Cc2ccc(O)cc2)C(=O)O)CSSC1(C)C)[C@@H](C)O` [Example 103, Val-Pro((4R)NH2)-Ile-Thr-Tyr-Pen-Asn-Arg-Dab-Thr-^DDab-Lys-Cys-Ser-Ser-Tyr] (HELM PEPTIDE1{V.[N[C@@H]1C[C@@H](C(=O)[*:2])N([*:1])C1].I.T.Y.[Pen].N.R.[Dab].T.[NCC[C@@H](N[*:1])C(=O)[*:2]].K.C.S.S.Y}$PEPTIDE1,PEPTIDE1,6:R3-13:R3$$$V2.0), in series [1], the “Escherichia coli ATCC 25922 MIC” value turned out to be 0.5 µg/mL. Also, the “Escherichia coli MCR-1 Af 45 MIC” value in series [2] turned out to be 0.125 µg/mL. The “Klebsiella pneumoniae SSI3010 MIC” value in series [3] stood at 0.5 µg/mL. The “Hemolysis at 0.2 g/L” value in series [4] is given as <1%.
Turning to `CC[C@H](C)[C@@H]1NC(=O)[C@@H](NC(=O)[C@H](Cc2ccc(O)cc2)NC(=O)[C@@H](NC(=O)[C@@H](NC(=O)[C@@H]2C[C@@H](O)CN2C(=O)[C@@H](N)C(C)C)[C@@H](C)CC)[C@@H](C)O)C(C)(C)SSC[C@@H](C(=O)N[C@@H](CO)C(=O)N[C@@H](CCCNC(=N)N)C(=O)N[C@@H](Cc2ccc(O)cc2)C(=O)O)NC(=O)[C@H](CCCCN)NC(=O)[C@@H](CCN)NC(=O)[C@H]([C@@H](C)O)NC(=O)[C@H](CCN)NC(=O)[C@H](CCCNC(=N)N)NC1=O` [Example 104, Val-Hyp-Ile-Thr-Tyr-Pen-Ile-Arg-Dab-Thr-^DDab-Lys-Cys-Ser-Arg-Tyr] (HELM PEPTIDE1{V.[Hyp].I.T.Y.[Pen].I.R.[Dab].T.[NCC[C@@H](N[*:1])C(=O)[*:2]].K.C.S.R.Y}$PEPTIDE1,PEPTIDE1,6:R3-13:R3$$$V2.0), in series [1], the “Escherichia coli ATCC 25922 MIC” value amounted to 0.125 µg/mL. Moreover, the “Escherichia coli MCR-1 Af 45 MIC” value in series [2] is 0.125 µg/mL. The “Klebsiella pneumoniae SSI3010 MIC” value in series [3] amounted to 0.25 µg/mL. In series [4], the “Hemolysis at 0.2 g/L” value was <1%.
As to `CC[C@H](C)[C@H](NC(=O)[C@@H](NC(=O)[C@@H]1C[C@@H](O)CN1C(=O)[C@@H](N)C(C)C)[C@@H](C)CC)C(=O)N[C@@H](Cc1ccc(O)cc1)C(=O)N[C@@H]1C(=O)N[C@@H](CC(N)=O)C(=O)N[C@@H](CCCNC(=N)N)C(=O)N[C@@H](CCN)C(=O)N[C@@H]([C@@H](C)O)C(=O)N[C@H](CCN)C(=O)N[C@@H](CCCCN)C(=O)N[C@H](C(=O)N[C@@H](CCN)C(=O)N[C@@H](CO)C(=O)N[C@@H](Cc2ccc(O)cc2)C(=O)O)CSSC1(C)C` [Example 105, Val-Hyp-Ile-Ile-Tyr-Pen-Asn-Arg-Dab-Thr-^DDab-Lys-Cys-Dab-Ser-Tyr] (HELM PEPTIDE1{V.[Hyp].I.I.Y.[Pen].N.R.[Dab].T.[NCC[C@@H](N[*:1])C(=O)[*:2]].K.C.[Dab].S.Y}$PEPTIDE1,PEPTIDE1,6:R3-13:R3$$$V2.0), the “Escherichia coli ATCC 25922 MIC” value in series [1] is 0.25 µg/mL. The “Escherichia coli MCR-1 Af 45 MIC” value in series [2] was determined as 0.125 µg/mL. In addition, the “Klebsiella pneumoniae SSI3010 MIC” value in series [3] was 0.5 µg/mL. Besides, in series [4], the “Hemolysis at 0.2 g/L” value is <1%.
For `CC[C@H](C)[C@H](NC(=O)[C@@H](NC(=O)[C@@H]1C[C@@H](N)CN1C(=O)[C@@H](N)C(C)C)[C@@H](C)CC)C(=O)N[C@@H](Cc1ccc(O)cc1)C(=O)N[C@@H]1C(=O)N[C@@H](CC(N)=O)C(=O)N[C@@H](CCCNC(=N)N)C(=O)N[C@@H](CCN)C(=O)N[C@@H]([C@@H](C)O)C(=O)N[C@H](CCN)C(=O)N[C@@H](CCCNC(N)=O)C(=O)N[C@H](C(=O)N[C@@H](CCN)C(=O)N[C@@H](CO)C(=O)N[C@@H](Cc2ccc(O)cc2)C(=O)O)CSSC1(C)C` [Example 106, Val-Pro((4R)NH2)-Ile-Ile-Tyr-Pen-Asn-Arg-Dab-Thr-^DDab-Cit-Cys-Dab-Ser-Tyr] (HELM PEPTIDE1{V.[N[C@@H]1C[C@@H](C(=O)[*:2])N([*:1])C1].I.I.Y.[Pen].N.R.[Dab].T.[NCC[C@@H](N[*:1])C(=O)[*:2]].[Cit].C.[Dab].S.Y}$PEPTIDE1,PEPTIDE1,6:R3-13:R3$$$V2.0), the “Escherichia coli ATCC 25922 MIC” value in series [1] came out at 0.25 µg/mL. The “Escherichia coli MCR-1 Af 45 MIC” value in series [2] is 0.25 µg/mL. The “Klebsiella pneumoniae SSI3010 MIC” value in series [3] came to 0.25 µg/mL. For the same compound, the “Hemolysis at 0.2 g/L” value in series [4] is <1%.
For the compound `CC[C@H](C)[C@H](NC(=O)[C@@H](NC(=O)[C@@H]1C[C@@H](O)CN1C(=O)[C@@H](N)C(C)C)[C@@H](C)CC)C(=O)N[C@@H](Cc1ccc(O)cc1)C(=O)N[C@@H]1C(=O)N[C@@H](CC(N)=O)C(=O)N[C@@H](CCCNC(=N)N)C(=O)N[C@@H](CCN)C(=O)N[C@@H]([C@@H](C)O)C(=O)N[C@H](CCN)C(=O)N[C@@H](CCCCN)C(=O)N[C@H](C(=O)N[C@@H](CO)C(=O)N[C@@H](CCCNC(=N)N)C(=O)N[C@@H](Cc2ccc(O)cc2)C(=O)O)CSSC1(C)C` [Example 107, Val-Hyp-Ile-Ile-Tyr-Pen-Asn-Arg-Dab-Thr-^DDab-Lys-Cys-Ser-Arg-Tyr] (HELM PEPTIDE1{V.[Hyp].I.I.Y.[Pen].N.R.[Dab].T.[NCC[C@@H](N[*:1])C(=O)[*:2]].K.C.S.R.Y}$PEPTIDE1,PEPTIDE1,6:R3-13:R3$$$V2.0), the “Escherichia coli ATCC 25922 MIC” value in series [1] was 0.25 µg/mL. The “Escherichia coli MCR-1 Af 45 MIC” value in series [2] amounted to 0.25 µg/mL. The “Klebsiella pneumoniae SSI3010 MIC” value in series [3] came to 0.5 µg/mL. Besides, the “Hemolysis at 0.2 g/L” value in series [4] is recorded as <1%.
`CC[C@H](C)[C@H](NC(=O)[C@@H]1C[C@@H](O)CN1C(=O)[C@@H](N)C(C)C)C(=O)N[C@@H](CCN)C(=O)N[C@@H](Cc1ccc(O)cc1)C(=O)N[C@@H]1C(=O)N[C@@H](CC(N)=O)C(=O)N[C@@H](CCCNC(=N)N)C(=O)N[C@@H](CCN)C(=O)N[C@@H]([C@@H](C)O)C(=O)N[C@H](CCN)C(=O)N[C@@H](CCCNC(N)=O)C(=O)N[C@H](C(=O)N[C@@H](CCN)C(=O)N[C@@H](CO)C(=O)N[C@@H](Cc2ccc(O)cc2)C(=O)O)CSSC1(C)C` [Example 108, Val-Hyp-Ile-Dab-Tyr-Pen-Asn-Arg-Dab-Thr-^DDab-Cit-Cys-Dab-Ser-Tyr] (HELM PEPTIDE1{V.[Hyp].I.[Dab].Y.[Pen].N.R.[Dab].T.[NCC[C@@H](N[*:1])C(=O)[*:2]].[Cit].C.[Dab].S.Y}$PEPTIDE1,PEPTIDE1,6:R3-13:R3$$$V2.0): the “Escherichia coli ATCC 25922 MIC” value in series [1] came out at 0.25 µg/mL. The “Escherichia coli MCR-1 Af 45 MIC” value in series [2] amounted to 0.125 µg/mL. Also, in series [3], the “Klebsiella pneumoniae SSI3010 MIC” value came out at 0.25 µg/mL. In addition, the “Hemolysis at 0.2 g/L” value in series [4] was <1%.
As for `CC[C@H](C)[C@H](NC(=O)[C@@H](NC(=O)[C@@H]1C[C@@H](N)CN1C(=O)[C@@H](N)C(C)C)[C@@H](C)CC)C(=O)N[C@@H](Cc1ccc(O)cc1)C(=O)N[C@@H]1C(=O)N[C@@H](CC(N)=O)C(=O)N[C@@H](CCCNC(=N)N)C(=O)N[C@@H](CCN)C(=O)N[C@@H]([C@@H](C)O)C(=O)N[C@H](CCN)C(=O)N[C@@H](CCCCN)C(=O)N[C@H](C(=O)N[C@@H](CCN)C(=O)N[C@H](C(=O)N[C@@H](Cc2ccc(O)cc2)C(=O)O)[C@@H](C)O)CSSC1(C)C` [Example 109, Val-Pro((4R)NH2)-Ile-Ile-Tyr-Pen-Asn-Arg-Dab-Thr-^DDab-Lys-Cys-Dab-Thr-Tyr] (HELM PEPTIDE1{V.[N[C@@H]1C[C@@H](C(=O)[*:2])N([*:1])C1].I.I.Y.[Pen].N.R.[Dab].T.[NCC[C@@H](N[*:1])C(=O)[*:2]].K.C.[Dab].T.Y}$PEPTIDE1,PEPTIDE1,6:R3-13:R3$$$V2.0), in series [1], the “Escherichia coli ATCC 25922 MIC” value turned out to be 0.125 µg/mL. Also, the “Escherichia coli MCR-1 Af 45 MIC” value in series [2] was 0.125 µg/mL. Further, the “Klebsiella pneumoniae SSI3010 MIC” value in series [3] is 0.25 µg/mL. Also, the “Hemolysis at 0.2 g/L” value in series [4] is recorded as <1%.
